Results on 4 compounds are retold here after patent publication US3992379A, “4-Alkyldioxyalkylene-5-benzylpyrimidines” (Ludwig Heumann & Co. GmbH, priority 1973, dated 1976).

One data set can be described thus: in vivo. The following applies: rat, rats.
A further data set concerns 25 coli strains. The experiment in a line: Anti-bacterial action test with discs impregnated with 25 μg of substance (arresting circle diameter). It counts as cell-based. The following applies: mean (x) over 25 coli strains. The protocol:
The test for anti-bacterial action […] was performed with discs which were each impregnated with 25 μg of the two substances A and B: […]

Data set [1] can be described thus: Anti-bacterial action, general statement. The following applies: in words; compared with conventional bactericide 5-nitro-8-hydroxycholine. The text has this:
These physical properties are required in order to meet the fundamental needs for resorption required in oral adminstration.

Data set [2] is described as follows: Toxicity, general statement. The following applies: in words; compared with conventional bactericide 5-nitro-8-hydroxycholine.
A short description of a further data set: physchem. The following applies: water.
For data set [3] the following is noted: J. Med. Pharm. Chem. 5, p. 1118, Tab. 9; cited from earlier work.

≈ marks a conversion by molar mass, not a printed value.

In “in vivo”, `O=[N+]([O-])c1ccc(O)c2ncccc12` [substance A, 5-nitro-8-hydrocholine] displayed an LD50 of 830 mg/kg. In the data set on 25 coli strains, this compound came in with a zone of inhibition at 25 µg/disc of 20.7 mm.
In the data set on 25 coli strains, `COCCOc1c(OC)cc(Cc2cnc(N)nc2N)cc1OC` [substance B, 2,4-diamino-5-(3',5'-dimethoxy-4'-methyldioxyethylene-benzyl)-pyrimidine] registered a zone of inhibition at 25 µg/disc of 28.5 mm. Besides, the anti-bacterial action result in data set [1] is recorded as “improved anti-bacterial action”. Further, the degree of toxicity entry in data set [2] is on record as “substantially lower degree of toxicity”. In addition, the concentration in solution in the data set “physchem” (solubility) came to 8000 µg/mL (≈ 23.9 mM).
As for `COc1cc(Cc2cnc(N)nc2N)cc(OC)c1OC` [2,4-diamino-5-(3',4',5'-trimethoxy-benzyl)-pyrimidine], the bactericidal activity entry in data set [3] is listed as “such activity is present in the maximum degree”. The same compound returned a solubility in “physchem” of 670 µg/mL (≈ 2.31 mM).
As for `COc1ccc(Cc2cnc(N)nc2N)cc1OC` [2,4-diamino-5-(3'-4'-dimethoxybenzyl)-pyrimidine], in data set [3], the bactericidal activity result was “has bactericidal activity”.

A word on the LD50: it is the dose expected to kill half of the subjects tested. Read a low LD50 as greater toxicity. Broadly, the zone of inhibition is the extent of the growth-free halo in a diffusion test. Low readings indicate little suppression of growth, high ones wide suppression of growth. For orientation: solubility means how much of the substance goes into solution per volume. A higher solubility goes with much dissolved substance.
